Patent US20120190752A1, “EXO-S-MECAMYLAMINE METHOD, USE, AND COMPOUND FOR TREATMENT” (Targacept Inc., priority 2009, published 2012)

Test system: subjects with major depressive disorder (MDD) who were inadequate responders to citalopram
Assay: HAMD-17 total score, Phase 2b trial of TC-5214 as add-on to citalopram
Type: in vivo, human
From the text: The Hamilton Rating Scale for Depression (HRSD), also known as the Hamilton Depression Rating Scale (HDRS) or abbreviated to HAM-D or HAMD, is a multiple choice questionnaire that clinicians may use to rate the severity of a patient's major depression (Hamilton 1967). The questionnaire rates the severity of symptoms observed in depression such as low mood, insomnia, agitation, anxiety and weight loss. The questionnaire is presently one of the most commonly used scales for rating depression in medical research. The clinician chooses the possible responses to each question by interviewing the patient and by observing the patient's symptoms. Each question has multiple possible responses which increase in severity. Although Hamilton's original scale had 17 questions, others later developed HRSD scales with different numbers of questions, the greatest of which is 29 (HRSD-29). Clinicians can use the HRSD in place of, or in conjunction with, the Montgomery-Åsberg Depression Rating Scale (MADRS), the Beck Depression Inventory (BDI), the Zung Self-Rating Depression Scale, the Wechsler Depression Rating Scale, the […] Depression Rating Scale, the Inventory of Depressive Symptomatology (IDS), the Quick Inventory of Depressive Symptomatology (QIDS), and other questionnaires. […] The results on all of the trial's secondary efficacy measures, including assessments of depression, irritability, disability, cognition, severity of illness and global improvement, were also statistically significant in favor of TC-5214 on an intent to treat basis. The Phase 2b trial of TC-5214 as an augmentation treatment for MDD was a two-phase trial conducted at 20 sites in India and three sites in the United States. In the first phase, 579 subjects with MDD received first-line treatment with citalopram hydrobromide for eight weeks, 20 mg daily for the first four weeks and 40 mg daily for the next four weeks. Citalopram, an approved treatment for MDD marketed in the United States as […]®, is from the drug class known as selective serotonin reuptake inhibitors. At the end of the eight weeks, subjects whose MADRS score had improved less than 50 percent and whose CGI-SI score was no lower than 4 were considered partial or non responders and randomized into the double blind second phase of the trial. In the double blind second phase, subjects continued their citalopram treatment and also received either add-on TC-5214 or add-on placebo for an additional eight weeks. The daily dosage of TC-5214 was initially 2 mg and could be increased at the discretion of the investigator to 4 mg and to 8 mg based on tolerability and therapeutic response. The primary outcome measure for the trial was mean change between TC-5214 and placebo from double blind baseline as measured by HAM-D at week 16. The intent to treat dataset included 265 subjects in the second phase. In more detail, a multi-center double-blind, randomized, placebo-controlled, parallel group, flexible dose titration study of TC-5214 as adjunctive therapy in subjects with major depressive disorder (MDD) who were inadequate responders to citalopram was conducted in centers in the US and India. The study consisted of a screening period, baseline/washout period, open-label phase, double-blind phase, and a follow-up visit. Subject participation in the study could continue for up to 16 weeks of treatment. Following a washout period of up to 28 days for other antidepressants, subjects with MDD and a MADRS total score >/=28 and a Clinical Global Impression-Severity (CGI-S) score >/=4 were enrolled on Day 1 into an open-label citalopram-only phase of the study. This phase lasted 8 weeks, with citalopram (CIT) dose increased from a once-daily dose of 20 mg (Day 1 through Week 4) to 40 mg (Week 4 through Week 8). A total of 579 subjects entered the open-label citalopram phase. […]

[1] = ITT and PP, at almost every assessment week, result in words
[2] = ITT, Double Blind Week 8 (Baseline), before TC-5214
[3] = ITT, Double Blind Week 18 (Follow-up)
[4] = ITT, Double Blind Week 18 LOCF (Follow-up)
[5] = ITT, Double Blind Week 18 LOCF (Follow-up), change from Week 16

Compound: CNC1(C)C2CCC(C2)C1(C)C (stereo in doubt) [TC-5214, (S)—N,2,3,3-tetramethylnorbornan-2-amine]
- HAMD-17 total score change from baseline compared with placebo (ITT and PP populations, result in words): statistically significant decreases (improvements)
- HAMD responders (reduction from baseline ≧50%) proportion compared with placebo [1]: higher proportion of responders
- HAMD-17 remission proportion compared with placebo [1]: higher proportion of subjects in remission
- HAMD-17 total score, observed Mean [2]: 23.5
- HAMD-17 total score, observed Median [2]: 24.0
- HAMD-17 Remission (Score ≦7): Subjects with Remission (number) (ITT, Double Blind Week 9): 1
- HAMD-17 Remission (Score ≦7): Subjects with Remission (percentage) (ITT, Double Blind Week 9): (1%)
- HAMD-17 Remission (Score ≦7): Subjects without Remission (number) (ITT, Double Blind Week 9): 132
- HAMD-17 Remission (Score ≦7): Subjects without Remission (percentage) (ITT, Double Blind Week 9): (99%)
- HAMD-17 Remission (Score ≦10): Subjects with Remission (number) (ITT, Double Blind Week 9): 4
- HAMD-17 Remission (Score ≦10): Subjects with Remission (percentage) (ITT, Double Blind Week 9): (3%)
- HAMD-17 Remission (Score ≦10): Subjects without Remission (number) (ITT, Double Blind Week 9): 129
- HAMD-17 Remission (Score ≦10): Subjects without Remission (percentage) (ITT, Double Blind Week 9): (97%)
- HAMD-17 reduction from baseline ≧50%: Subjects with Response (number) (ITT, Double Blind Week 9): 4
- HAMD-17 reduction from baseline ≧50%: Subjects with Response (percentage) (ITT, Double Blind Week 9): (3%)
- HAMD-17 reduction from baseline ≧50%: Subjects without Response (number) (ITT, Double Blind Week 9): 129
- HAMD-17 reduction from baseline ≧50%: Subjects without Response (percentage) (ITT, Double Blind Week 9): (97%)
- HAMD-17 Remission (Score ≦7): Subjects with Remission (number) (ITT, Double Blind Week 10): 6
- HAMD-17 Remission (Score ≦7): Subjects with Remission (percentage) (ITT, Double Blind Week 10): (5%)
- HAMD-17 Remission (Score ≦7): Subjects without Remission (number) (ITT, Double Blind Week 10): 127
- HAMD-17 Remission (Score ≦7): Subjects without Remission (percentage) (ITT, Double Blind Week 10): (95%)
- HAMD-17 Remission (Score ≦10): Subjects with Remission (number) (ITT, Double Blind Week 10): 20
- HAMD-17 Remission (Score ≦10): Subjects with Remission (percentage) (ITT, Double Blind Week 10): (15%)
- HAMD-17 Remission (Score ≦10): Subjects without Remission (number) (ITT, Double Blind Week 10): 113
- HAMD-17 Remission (Score ≦10): Subjects without Remission (percentage) (ITT, Double Blind Week 10): (85%)
- HAMD-17 reduction from baseline ≧50%: Subjects with Response (number) (ITT, Double Blind Week 10): 23
- HAMD-17 reduction from baseline ≧50%: Subjects with Response (percentage) (ITT, Double Blind Week 10): (17%)
- HAMD-17 reduction from baseline ≧50%: Subjects without Response (number) (ITT, Double Blind Week 10): 110
- HAMD-17 reduction from baseline ≧50%: Subjects without Response (percentage) (ITT, Double Blind Week 10): (83%)
- HAMD-17 Remission (Score ≦7): Subjects with Remission (number) (ITT, Double Blind Week 12): 20
- HAMD-17 Remission (Score ≦7): Subjects with Remission (percentage) (ITT, Double Blind Week 12): (15%)
- HAMD-17 Remission (Score ≦7): Subjects without Remission (number) (ITT, Double Blind Week 12): 113
- HAMD-17 Remission (Score ≦7): Subjects without Remission (percentage) (ITT, Double Blind Week 12): (85%)
- HAMD-17 Remission (Score ≦10): Subjects with Remission (number) (ITT, Double Blind Week 12): 40
- HAMD-17 Remission (Score ≦10): Subjects with Remission (percentage) (ITT, Double Blind Week 12): (30%)
- HAMD-17 Remission (Score ≦10): Subjects without Remission (number) (ITT, Double Blind Week 12): 93
- HAMD-17 Remission (Score ≦10): Subjects without Remission (percentage) (ITT, Double Blind Week 12): (70%)
- HAMD-17 reduction from baseline ≧50%: Subjects with Response (number) (ITT, Double Blind Week 12): 45
- HAMD-17 reduction from baseline ≧50%: Subjects with Response (percentage) (ITT, Double Blind Week 12): (34%)
- HAMD-17 reduction from baseline ≧50%: Subjects without Response (number) (ITT, Double Blind Week 12): 88
- HAMD-17 reduction from baseline ≧50%: Subjects without Response (percentage) (ITT, Double Blind Week 12): (66%)
- HAMD-17 Remission (Score ≦7): Subjects with Remission (number) (ITT, Double Blind Week 14): 37
- HAMD-17 Remission (Score ≦7): Subjects with Remission (percentage) (ITT, Double Blind Week 14): (28%)
- HAMD-17 Remission (Score ≦7): Subjects without Remission (number) (ITT, Double Blind Week 14): 96
- HAMD-17 Remission (Score ≦7): Subjects without Remission (percentage) (ITT, Double Blind Week 14): (72%)
- HAMD-17 Remission (Score ≦10): Subjects with Remission (number) (ITT, Double Blind Week 14): 60
- HAMD-17 Remission (Score ≦10): Subjects with Remission (percentage) (ITT, Double Blind Week 14): (45%)
- HAMD-17 Remission (Score ≦10): Subjects without Remission (number) (ITT, Double Blind Week 14): 73
- HAMD-17 Remission (Score ≦10): Subjects without Remission (percentage) (ITT, Double Blind Week 14): (55%)
- HAMD-17 reduction from baseline ≧50%: Subjects with Response (number) (ITT, Double Blind Week 14): 72
- HAMD-17 reduction from baseline ≧50%: Subjects with Response (percentage) (ITT, Double Blind Week 14): (54%)
- HAMD-17 reduction from baseline ≧50%: Subjects without Response (number) (ITT, Double Blind Week 14): 61
- HAMD-17 reduction from baseline ≧50%: Subjects without Response (percentage) (ITT, Double Blind Week 14): (46%)
- HAMD-17 Remission (Score ≦7): Subjects with Remission (number) (ITT, Double Blind Week 16): 52
- HAMD-17 Remission (Score ≦7): Subjects with Remission (percentage) (ITT, Double Blind Week 16): (39%)
- HAMD-17 Remission (Score ≦7): Subjects without Remission (number) (ITT, Double Blind Week 16): 81
- HAMD-17 Remission (Score ≦7): Subjects without Remission (percentage) (ITT, Double Blind Week 16): (61%)
- HAMD-17 Remission (Score ≦10): Subjects with Remission (number) (ITT, Double Blind Week 16): 83
- HAMD-17 Remission (Score ≦10): Subjects with Remission (percentage) (ITT, Double Blind Week 16): (62%)
- HAMD-17 Remission (Score ≦10): Subjects without Remission (number) (ITT, Double Blind Week 16): 50
- HAMD-17 Remission (Score ≦10): Subjects without Remission (percentage) (ITT, Double Blind Week 16): (38%)
- HAMD-17 reduction from baseline ≧50%: Subjects with Response (number) (ITT, Double Blind Week 16): 90
- HAMD-17 reduction from baseline ≧50%: Subjects with Response (percentage) (ITT, Double Blind Week 16): (68%)
- HAMD-17 reduction from baseline ≧50%: Subjects without Response (number) (ITT, Double Blind Week 16): 43
- HAMD-17 reduction from baseline ≧50%: Subjects without Response (percentage) (ITT, Double Blind Week 16): (32%)
- HAMD-17 total score, observed Mean (ITT, Double Blind Week 16 LOCF): 9.8
- HAMD-17 total score, observed Median (ITT, Double Blind Week 16 LOCF): 8.0
- HAMD-17 Mean Difference between TC-5214 and Placebo (ITT, Double Blind Week 16 LOCF (change from Week 8)): 6.00
- HAMD-17 Remission (Score ≦7): Subjects with Remission (number) [3]: 60
- HAMD-17 Remission (Score ≦7): Subjects with Remission (percentage) [3]: (45%)
- HAMD-17 Remission (Score ≦7): Subjects without Remission (number) [3]: 73
- HAMD-17 Remission (Score ≦7): Subjects without Remission (percentage) [3]: (55%)
- HAMD-17 Remission (Score ≦10): Subjects with Remission (number) [3]: 85
- HAMD-17 Remission (Score ≦10): Subjects with Remission (percentage) [3]: (64%)
- HAMD-17 Remission (Score ≦10): Subjects without Remission (number) [3]: 48
- HAMD-17 Remission (Score ≦10): Subjects without Remission (percentage) [3]: (36%)
- HAMD-17 reduction from baseline ≧50%: Subjects with Response (number) [3]: 89
- HAMD-17 reduction from baseline ≧50%: Subjects with Response (percentage) [3]: (67%)
- HAMD-17 reduction from baseline ≧50%: Subjects without Response (number) [3]: 44
- HAMD-17 reduction from baseline ≧50%: Subjects without Response (percentage) [3]: (33%)
- HAMD-17 total score, observed Mean [4]: 9.4
- HAMD-17 total score, observed Median [4]: 8.0
- HAMD-17 Adjusted Mean change [5]: −0.70
- HAMD-17 Mean Difference between TC-5214 and Placebo [5]: −0.13
- HAMD-17 Difference vs Placebo + CIT (ITT, Week 8 to Week 16 LOCF): −6.0
- HAMD-17 total (raw) score change from baseline compared with placebo by week (ITT, Weeks 10, 12, 14, and 16, result in words): statistically significant decreases (improvements)
